Measured values taken from patent US20240207304A1, “Combination Therapies Comprising C/EBP Alpha saRNA” (MiNA Therapeutics Limited, priority 2021, published 2024).

Test system: NAFLD and IR genes
Assay: Effects on NAFLD and IR gene expression in the liver
From the text: Abbreviations in Table 4-1 and Table 4-2: NAFLD: non-alcoholic fatty liver disease; IR: insulin resistance; DNL: de novo lipogenesis; FA: fatty acid; TG: triglycerides; LPL: lipoprotein lipase; HP: hepatic lipase; CHOL: cholesterol.

## O=C1[C@H](CC[C@H](O)c2ccc(F)cc2)[C@@H](c2ccc(O)cc2)N1c1ccc(F)cc1 [Ezetimibe]
  Effect on ACACA (ACC1): minor up
  Effect on ACACB (ACC2): up
  Effect on APOC3: down
  Effect on CD36: minor down
  Effect on ChREBP (MLX1PL): up
  Effect on DGAT2: minor down
  Effect on FAS: down
  Effect on LDLR: minor down
  Effect on MTP (MTTP1): up
  Effect on PPARα: up
  Effect on PPARγ: up
  Effect on PPARγ-CoA 1α: up
  Effect on PPARγ-CoA 1β (PERC): up
  Effect on SREBP-1c: up
  Effect on mTOR: no change
